From ChEMBL document CHEMBL3421620, “A facile synthesis of novel miconazole analogues and the evaluation of their antifungal activity” (2015)
Values after ≈ are worked out from the molar mass of the structure shown.

How the values were obtained:
Format in all cases: functional
[1] = system: Yarrowia lipolytica; assay: Antifungal activity against Candida lipolytica by broth microdilution method
[2] = system: Candida albicans; assay: Antifungal activity against Candida albicans Strain 19 by broth microdilution method
[3] = system: Candida albicans; assay: Antifungal activity against Candida albicans Strain 27 by broth microdilution method
[4] = system: Candida albicans; assay: Antifungal activity against Candida albicans Strain 28 by broth microdilution method
[5] = system: Candida albicans; assay: Antifungal activity against Candida albicans Strain 8 by broth microdilution method
[6] = system: Candida albicans; assay: Antifungal activity against Candida albicans Strain 23 by broth microdilution method
[7] = system: Candida albicans; assay: Antifungal activity against Candida albicans Strain 17 by broth microdilution method
[8] = system: Candida albicans; assay: Antifungal activity against Candida albicans Strain 16 by broth microdilution method
[9] = system: Candida albicans; assay: Antifungal activity against Candida albicans Strain 14 by broth microdilution method
[10] = system: Candida albicans; assay: Antifungal activity against Candida albicans Strain 2 by broth microdilution method
[11] = system: Candida tropicalis; assay: Antifungal activity against Candida tropicalis ATCC 13803 by broth microdilution method
[12] = system: Candida albicans; assay: Antifungal activity against Candida albicans Strain 18 by broth microdilution method
[13] = system: Candida albicans; assay: Antifungal activity against Candida albicans Strain 10 by broth microdilution method
[14] = system: Cyberlindnera jadinii; assay: Antifungal activity against Candida utilis ATCC 9226 by broth microdilution method; conditions: Williopsis jadinii
[15] = system: Candida albicans; assay: Antifungal activity against Candida albicans Strain 5 by broth microdilution method
[16] = system: Candida albicans; assay: Antifungal activity against Candida albicans Strain 29 by broth microdilution method
[17] = system: Rhizopus arrhizus; assay: Antifungal activity against Rhizopus oryzae ATCC 10329 by broth microdilution method
[18] = system: Candida albicans; assay: Antifungal activity against Candida albicans Strain 20 by broth microdilution method
[19] = system: Candida albicans; assay: Antifungal activity against Candida albicans Strain 26 by broth microdilution method
[20] = system: Mucor hiemalis; assay: Antifungal activity against Mucor hiemalis ATCC 8690 by broth microdilution method
[21] = system: Candida albicans; assay: Antifungal activity against Candida albicans Strain 13 by broth microdilution method
[22] = system: Candida albicans; assay: Antifungal activity against Candida albicans ATCC 10231 by broth microdilution method
[23] = system: Candida albicans; assay: Antifungal activity against Candida albicans Strain 22 by broth microdilution method
[24] = system: Candida albicans; assay: Antifungal activity against Candida albicans Strain 21 by broth microdilution method
[25] = system: Nakaseomyces glabratus; assay: Antifungal activity against Candida glabrata by broth microdilution method
[26] = system: Candida albicans; assay: Antifungal activity against Candida albicans Strain 6 by broth microdilution method
[27] = system: Pichia kudriavzevii; assay: Antifungal activity against Candida krusei by broth microdilution method
[28] = system: Candida albicans; assay: Antifungal activity against Candida albicans Strain 24 by broth microdilution method
[29] = system: Candida albicans; assay: Antifungal activity against Candida albicans Strain 12 by broth microdilution method
[30] = system: Candida albicans; assay: Antifungal activity against Candida albicans Strain 7 by broth microdilution method
[31] = system: Candida albicans; assay: Antifungal activity against Candida albicans Strain 4 by broth microdilution method
[32] = system: Candida albicans; assay: Antifungal activity against Candida albicans Strain 3 by broth microdilution method
[33] = system: Aspergillus fumigatus; assay: Antifungal activity against Aspergillus fumigatus 16907 by broth microdilution method
[34] = system: Candida albicans; assay: Antifungal activity against Candida albicans Strain 25 by broth microdilution method
[35] = system: Candida albicans; assay: Antifungal activity against Candida albicans Strain 11 by broth microdilution method
[36] = system: Candida albicans; assay: Antifungal activity against Candida albicans Strain 1 by broth microdilution method
[37] = system: Candida albicans; assay: Antifungal activity against Candida albicans Strain 9 by broth microdilution method
[38] = Antifungal activity against Trichosporon cutaneum ATCC 28592 by broth microdilution method; conditions: Cutaneotrichosporon cutaneum
[39] = system: Candida parapsilosis; assay: Antifungal activity against Candida parapsilosis by broth microdilution method; conditions: Lodderomyces parapsilosis
[40] = system: Candida albicans; assay: Antifungal activity against Candida albicans Strain 15 by broth microdilution method
[41] = system: Kluyveromyces marxianus; assay: Antifungal activity against Candida pseudotropicalis by broth microdilution method

**Q.** For CCC(C)n1ncn(-c2ccc(N3CCN(c4ccc(OCC5COC(Cn6cncn6)(c6ccc(Cl)cc6Cl)O5)cc4)CC3)cc2)c1=O (configuration not stated) [ITRACONAZOLE], which MIC [1] is on record?
**A.** 0.12 µg/mL (≈ 0.17 µM)

**Q.** What about the MIC [2] of the same molecule?
**A.** 0.06 µg/mL (≈ 0.085 µM)

**Q.** And the MIC [3]?
**A.** 0.06 µg/mL (≈ 0.085 µM)

**Q.** What about the MIC [4] of the same molecule?
**A.** 0.03 µg/mL (≈ 0.0425 µM)

**Q.** What about the MIC [5] of the same molecule?
**A.** 0.03 µg/mL (≈ 0.0425 µM)

**Q.** What about the MIC [6] of the same molecule?
**A.** 0.06 µg/mL (≈ 0.085 µM)

**Q.** What about the MIC [7] of the same molecule?
**A.** 0.12 µg/mL (≈ 0.17 µM)

**Q.** And the MIC [8]?
**A.** 0.06 µg/mL (≈ 0.085 µM)

**Q.** What about the MIC [9] of the same molecule?
**A.** 0.06 µg/mL (≈ 0.085 µM)

**Q.** What about the MIC [10] of the same molecule?
**A.** 0.06 µg/mL (≈ 0.085 µM)

**Q.** And the MIC [11]?
**A.** 0.06 µg/mL (≈ 0.085 µM)

**Q.** And the MIC [12]?
**A.** 0.03 µg/mL (≈ 0.0425 µM)

**Q.** And the MIC [13]?
**A.** 0.06 µg/mL (≈ 0.085 µM)

**Q.** What about the MIC [14] of the same molecule?
**A.** 0.5 µg/mL (≈ 0.709 µM)

**Q.** And the MIC [15]?
**A.** 0.06 µg/mL (≈ 0.085 µM)

**Q.** And the MIC [16]?
**A.** 0.12 µg/mL (≈ 0.17 µM)

**Q.** What about the MIC [17] of the same molecule?
**A.** > 16 µg/mL

**Q.** What about the MIC [18] of the same molecule?
**A.** 0.06 µg/mL (≈ 0.085 µM)

**Q.** And the MIC [19]?
**A.** 0.12 µg/mL (≈ 0.17 µM)

**Q.** And the MIC [20]?
**A.** > 16 µg/mL

**Q.** What about the MIC [21] of the same molecule?
**A.** 0.06 µg/mL (≈ 0.085 µM)

**Q.** And the MIC [22]?
**A.** 0.06 µg/mL (≈ 0.085 µM)

**Q.** And the MIC [23]?
**A.** 0.03 µg/mL (≈ 0.0425 µM)

**Q.** What about the MIC [24] of the same molecule?
**A.** 0.12 µg/mL (≈ 0.17 µM)

**Q.** What about the MIC [25] of the same molecule?
**A.** 0.25 µg/mL (≈ 0.354 µM)

**Q.** What about the MIC [26] of the same molecule?
**A.** 0.06 µg/mL (≈ 0.085 µM)

**Q.** What about the MIC [27] of the same molecule?
**A.** 1 µg/mL (≈ 1.42 µM)

**Q.** And the MIC [28]?
**A.** 0.03 µg/mL (≈ 0.0425 µM)

**Q.** And the MIC [29]?
**A.** 0.12 µg/mL (≈ 0.17 µM)

**Q.** And the MIC [30]?
**A.** 0.06 µg/mL (≈ 0.085 µM)

**Q.** What about the MIC [31] of the same molecule?
**A.** 0.03 µg/mL (≈ 0.0425 µM)

**Q.** What about the MIC [32] of the same molecule?
**A.** 0.03 µg/mL (≈ 0.0425 µM)

**Q.** What about the MIC [33] of the same molecule?
**A.** 1 µg/mL (≈ 1.42 µM)

**Q.** And the MIC [34]?
**A.** 0.12 µg/mL (≈ 0.17 µM)

**Q.** What about the MIC [35] of the same molecule?
**A.** 0.06 µg/mL (≈ 0.085 µM)

**Q.** What about the MIC [36] of the same molecule?
**A.** 0.06 µg/mL (≈ 0.085 µM)

**Q.** What about the MIC [37] of the same molecule?
**A.** 0.12 µg/mL (≈ 0.17 µM)

**Q.** What about the MIC [38] of the same molecule?
**A.** 8 µg/mL (≈ 11.3 µM)

**Q.** And the MIC [39]?
**A.** 0.25 µg/mL (≈ 0.354 µM)

**Q.** What about the MIC [40] of the same molecule?
**A.** 0.06 µg/mL (≈ 0.085 µM)

**Q.** What about the MIC [41] of the same molecule?
**A.** 0.25 µg/mL (≈ 0.354 µM)

**Q.** What does the source list for COC(=O)c1ccc(COC(Cn2ccnc2)c2ccc(Cl)cc2Cl)cc1 (configuration not stated)?
**A.** MIC [1]: 0.12 µg/mL (≈ 0.296 µM); MIC [2]: 0.12 µg/mL (≈ 0.296 µM); MIC [3]: 0.06 µg/mL (≈ 0.148 µM); MIC [4]: 0.12 µg/mL (≈ 0.296 µM); MIC [5]: 0.12 µg/mL (≈ 0.296 µM); MIC [6]: 0.06 µg/mL (≈ 0.148 µM); MIC [7]: 0.12 µg/mL (≈ 0.296 µM); MIC [8]: 0.12 µg/mL (≈ 0.296 µM); MIC [9]: 0.06 µg/mL (≈ 0.148 µM); MIC [10]: 0.12 µg/mL (≈ 0.296 µM); MIC [11]: 0.12 µg/mL (≈ 0.296 µM); MIC [12]: 0.06 µg/mL (≈ 0.148 µM); MIC [13]: 0.12 µg/mL (≈ 0.296 µM); MIC [14]: 0.25 µg/mL (≈ 0.617 µM); MIC [15]: 0.12 µg/mL (≈ 0.296 µM); MIC [16]: 0.25 µg/mL (≈ 0.617 µM); MIC [17]: > 16 µg/mL; MIC [18]: 0.12 µg/mL (≈ 0.296 µM); MIC [19]: 0.12 µg/mL (≈ 0.296 µM); MIC [20]: > 16 µg/mL; MIC [21]: 0.06 µg/mL (≈ 0.148 µM); MIC [22]: 0.06 µg/mL (≈ 0.148 µM); MIC [23]: 0.06 µg/mL (≈ 0.148 µM); MIC [24]: 0.12 µg/mL (≈ 0.296 µM); MIC [25]: 0.25 µg/mL (≈ 0.617 µM); MIC [26]: 0.06 µg/mL (≈ 0.148 µM); MIC [27]: 0.12 µg/mL (≈ 0.296 µM); MIC [28]: 0.12 µg/mL (≈ 0.296 µM); MIC [29]: 0.12 µg/mL (≈ 0.296 µM); MIC [30]: 0.12 µg/mL (≈ 0.296 µM); MIC [31]: 0.12 µg/mL (≈ 0.296 µM); MIC [32]: 0.12 µg/mL (≈ 0.296 µM); MIC [33]: 4 µg/mL (≈ 9.87 µM); MIC [34]: 0.12 µg/mL (≈ 0.296 µM); MIC [35]: 0.12 µg/mL (≈ 0.296 µM); MIC [36]: 0.12 µg/mL (≈ 0.296 µM); MIC [37]: 0.25 µg/mL (≈ 0.617 µM); MIC [38]: 8 µg/mL (≈ 19.7 µM); MIC [39]: 0.12 µg/mL (≈ 0.296 µM); MIC [40]: 0.12 µg/mL (≈ 0.296 µM); MIC [41]: 0.5 µg/mL (≈ 1.23 µM)
